Results as given in patent US11850220B2 (Augusta University Research Institute, Inc., priority 2020, dated 2023).

Tests used:
Type in all cases: in vivo
hot plate = hot plate technique (central analgesic); conditions: for Potency: Relative to indomethacin at 120 min.
[1] = tested on: carrageenan-induced paw edema; assay: carrageenan-induced paw edema technique (anti-inflammatory); conditions: for Observed (1/property): 1/(% inhibition of edema thickness at 3 h effect); for Observed (1/property): test concentration or dose not given here; for Potency (% Inhibition relative to indomethacin at 3 h effect): test concentration or dose not given here
Source text: Anti-inflammatory properties of the ibuprofen-amino acid conjugate (5a-j) and ibuprofen-amino acid-4-aminophenol conjugates 7a-j were studied by the standard carrageenan-induced paw edema technique (Naumov, R. N. et al., Bioorg. Med. Chem. Lett. 2015, 25, 2314-2320; Tiwari, A. D. et al., Org. Biomol. Chem. 2014, 12, 7238-7249).

[2] = tested on: acetic acid-induced abdominal writhing; assay: acetic acid-induced abdominal writhing technique (peripheral analgesic); conditions: for Potency: Relative to indomethacin; for % Inhibition/protection / Writing reflex ± SEM: in vivo; for % Inhibition/protection: test concentration or dose not given here; for Writing reflex ± SEM: test concentration or dose not given here
[3] = % inhibition of edema thickness at 3 h effect, Table 7
[4] = anti-inflammatory property (% inhibition of edema at 3 h), Table 8

Compound	% protection (hot plate; After 30 min.)	Latency period ± SEM (hot plate; After 30 min.)	% protection (hot plate; After 60 min.)	Latency period ± SEM (hot plate; After 60 min.)	% protection (hot plate; After 90 min.)	Latency period ± SEM (hot plate; After 90 min.)	% protection (hot plate; After 120 min.)	Latency period ± SEM (hot plate; After 120 min.)	Potency (hot plate)	Observed (1/property) ([1]; Table 7)	% inhibition of edema ([1]; 1 h)	Mean edema thickness ([1]; 1 h)	% inhibition of edema ([1]; 2 h)	Mean edema thickness ([1]; 2 h)	% inhibition of edema ([1]; 3 h)	Mean edema thickness ([1]; 3 h)	% inhibition of edema ([1]; 4 h)	Mean edema thickness ([1]; 4 h)	% inhibition of edema ([1]; 24 h)	Mean edema thickness ([1]; 24 h)	also measured
CSCC[C@H](NC(=O)C(C)c1ccc(CC(C)C)cc1)C(=O)O (stereo partly drawn) [Compound 5i, (2-(4-Isobutylphenyl)propanoyl)-L-methionine]	(32.2) %	3.20 ± 0.03 s	(51.1) %	3.35 ± 0.06 s	(61.4) %	3.55 ± 0.07 s	(13.2) %	2.48 ± 0.04 s	23	0.02222	24%	0.93 ± 0.04 mm	54%	0.69 ± 0.05 mm	45%	0.71 ± 0.04 mm	12%	1.10 ± 0.06 mm	79%	0.04 ± 0.01 mm	Observed property [1, 3]: 45%; Observed property [1, 4]: 45%; Potency (% Inhibition relative to indomethacin at 3 h effect) [1]: 56%; Potency [2]: 40; % Inhibition/protection [2]: 22.2%; Writing reflex ± SEM [2]: 75.7 ± 1.9
CC(C)Cc1ccc(C(C)C(=O)N[C@@H](C)C(=O)O)cc1 (stereo partly drawn) [Compound 5b, (2-(4-Isobutylphenyl)propanoyl)-L-alanine]	(12.8) %	2.73 ± 0.03 s	(17.0) %	2.61 ± 0.12 s	(20.9) %	2.66 ± 0.01 s	(21.9) %	2.67 ± 0.06 s	39	0.01923	34%	0.81 ± 0.04 mm	37%	0.95 ± 0.02 mm	52%	0.63 ± 0.01 mm	51%	0.61 ± 0.03 mm	32%	0.13 ± 0.03 mm	Observed property [1, 3]: 52%; Observed property [1, 4]: 52%; Potency (% Inhibition relative to indomethacin at 3 h effect) [1]: 65%; Potency [2]: 80; % Inhibition/protection [2]: 43.8%; Writing reflex ± SEM [2]: 54.7 ± 2.0
CC(C)Cc1ccc(C(C)C(=O)N[C@H](C(=O)O)C(C)C)cc1 (stereo partly drawn) [Compound 5h]	(12.8) %	2.73 ± 0.05 s	(20.6) %	2.69 ± 0.04 s	(9.5) %	2.41 ± 0.02 s	(6.4) %	2.33 ± 0.02 s	11	0.01754	11%	1.09 ± 0.08 mm	14%	1.30 ± 0.07 mm	57%	0.56 ± 0.05 mm	49%	0.64 ± 0.06 mm	84%	0.03 ± 0.02 mm	Observed property [1, 3]: 57%; Observed property [1, 4]: 57%; Potency (% Inhibition relative to indomethacin at 3 h effect) [1]: 72%; Potency [2]: 54; % Inhibition/protection [2]: 29.6%; Writing reflex ± SEM [2]: 68.5 ± 2.0
CC[C@H](C)C(NC(=O)C(C)c1ccc(CC(C)C)cc1)C(=O)O (stereo in doubt) [Compound 5f, (2-(4-Isobutylphenyl)propanoyl)-L-isoleucine]	(14.9) %	2.78 ± 0.05 s	(15.2) %	2.57 ± 0.07 s	(25.9) %	2.77 ± 0.05 s	(48.9) %	3.26 ± 0.04 s	86	0.01613	27%	0.90 ± 0.05 mm	29%	1.07 ± 0.06 mm	62%	0.50 ± 0.03 mm	29%	0.89 ± 0.04 mm	47%	0.10 ± 0.03 mm	Observed property [1, 3]: 62%; Observed property [1, 4]: 62%; Potency (% Inhibition relative to indomethacin at 3 h effect) [1]: 78%; Potency [2]: 85; % Inhibition/protection [2]: 46.8%; Writing reflex ± SEM [2]: 51.8 ± 1.6
CC(C)Cc1ccc(C(C)C(=O)NCCC(=O)O)cc1 (stereo not drawn) [Compound 5c, 3-(2-(4-Isobutylphenyl)propanamido)propanoic acid]	(16.5) %	2.82 ± 0.04 s	(35.0) %	3.01 ± 0.02 s	(20.5) %	2.65 ± 0.05 s	(20.1) %	2.63 ± 0.10 s	36	0.01887	43%	0.70 ± 0.03 mm	29%	1.07 ± 0.07 mm	53%	0.61 ± 0.04 mm	36%	0.80 ± 0.03 mm	21%	0.15 ± 0.01 mm	Observed property [1, 3]: 53%; Observed property [1, 4]: 53%; Potency (% Inhibition relative to indomethacin at 3 h effect) [1]: 66%; Potency [2]: 8; % Inhibition/protection [2]: 4.2%; Writing reflex ± SEM [2]: 93.2 ± 1.4
CC(C)Cc1ccc(C(C)C(=O)N[C@@H](CC(C)C)C(=O)O)cc1 (stereo partly drawn) [Compound 5g]	(27.7) %	3.09 ± 0.04 s	(28.7) %	2.87 ± 0.03 s	(4.1) %	2.29 ± 0.05 s	(3.7) %	2.27 ± 0.03 s	7	0.01724	5%	1.17 ± 0.07 mm	24%	1.15 ± 0.06 mm	58%	0.55 ± 0.04 mm	40%	0.75 ± 0.05 mm	42%	0.11 ± 0.04 mm	Observed property [1, 3]: 58%; Observed property [1, 4]: 58%; Potency (% Inhibition relative to indomethacin at 3 h effect) [1]: 73%; Potency [2]: 89; % Inhibition/protection [2]: 48.9%; Writing reflex ± SEM [2]: 49.7 ± 1.2
